Patent publication US7943628B2, “Pyrimidine derivatives” (Pfizer Limited, priority 2005, dated 2011)

Molecular target: T1, histamine H4 receptor (Homo sapiens, UniProt Q9H3N8)
T1 construct: expressed in transfected cells; host or cells: CHO cells
Test: H4 binding, method 1 ([3H]-histamine filtration binding on CHO cell membranes)
Details: 1.5 h
Procedure: Cell pellets from CHO cells expressing the histamine H4 receptor were homogenised in ice-cold 50 mM Tris-HCl/0.5 mM CaCl2 buffer containing a protease inhibitor cocktail (Roche®, United Kingdom) using a ground glass homogeniser. Homogenates were centrifuged at 48000 g for 30 min at 4° C. The membrane pellet was resuspended in fresh buffer and the centrifugation step was repeated as described above. The membrane pellet was resuspended in 50 mM Tris-HCl in the same volume as the original cell pellet. Aliquots of membrane preparations were stored at −80° C. and were used for [^3H]-Histamine binding experiments.
Cell membranes (20-35 μg/well) were incubated for 90 minutes shaking at room temperature with 3 nM [2,5-^3H]Histamine dihydrochloride (30-60 Ci/mmol) in 50 mM Tris-HCl (pH 7.4), with or without competing H4 ligands. The reaction was terminated by rapid filtration through 0.5% polyethylenimine-soaked Unifilter GF/B plates (Packard) followed by three washes with 1 ml ice-cold 50 mM Tris-HCl. Filters were dried for 45 min at 45° C. and bound radiolabel was determined using scintillation counting techniques. Non-specific binding was defined with 10 μM JNJ7777120.

Row | inhibition at 10 µM [%] | inhibition at 20 µM [%] | SMILES
1 | 38 |  | CC(C)(C)CNc1cc(N2CCN(C3CNC3)CC2)ncn1 [Example 303, 6-(4-Azetidin-3-ylpiperazin-1-yl)-N-(2,2-dimethylpropyl)pyrimidin-4-amine]
2 |  | 21 | CC(C)(C)CCNc1cc(N2CC(N3CCOCC3)C2)ncn1 [Example 312, N-(3,3-Dimethylbutyl)-6-(3-morpholin-4-ylazetidin-1-yl)pyrimidin-4-amine]
3 | 20 |  | CCN(CC)C1CCN(c2cc(NCC(C)(C)C)ncn2)C1 (stereo not shown) [Example 302, 6-[3-(Diethylamino)pyrrolidin-1-yl]-N-(2,2-dimethylpropyl)pyrimidin-4-amine]

Same assay, conditions: H4 binding, method 1; Ki calculated from IC50 (Cheng-Prussoff)

Row | SMILES | Ki [nM]
4 | CCCNc1cc(N2CCN[C@@H](C)C2)ncn1 [Example 258, 6-[(3S)-3-Methylpiperazin-1-yl]-N-propylpyrimidin-4-amine] | 509
5 | CN[C@@H]1CCN(c2cc(NC(C)C)ncn2)C1 [Example 202, N-Isopropyl-6-[(3R)-3-(methylamino)pyrrolidin-1-yl]pyrimidin-4-amine] | 36.5
6 | CCNc1cc(N2CC(N3CCCC3)C2)nc(N)n1 [Example 197, N^4-Ethyl-6-(3-pyrrolidin-1-ylazetidin-1-yl)pyrimidine-2,4-diamine] | 33.2
7 | CN1C[C@@H]2CN(c3cc(NCCC(C)(C)C)ncn3)C[C@@H]2C1 [Example 3, N-(3,3-Dimethylbutyl)-6-[(3aR*,6aS*)-5-methylhexahydropyrrolo[3,4-c]pyrrol-2(1H)-yl]pyrimidin-4-amine] | 220
8 | CC(C)NC1CN(c2cc(NCC(C)(C)C)nc(N)n2)C1 [Example 145, N^4-(2,2-Dimethylpropyl)-6-[3-(isopropylamino)azetidin-1-yl]pyrimidine-2,4-diamine] | 14.3
9 | CNC1(C)CN(c2cc(NCC(C)(C)C)nc(N)n2)C1 [Example 186, N^4-(2,2-Dimethylpropyl)-6-[3-methyl-3-(methylamino)azetidin-1-yl]pyrimidine-2,4-diamine] | 22.2
10 | CCNc1cc(N2CC(N)C2)nc(N)n1 [Example 170, 6-(3-Aminoazetidin-1-yl)-N^4-ethylpyrimidine-2,4-diamine] | 8.55
11 | CN(C)[C@H]1CCN(c2cc(NCCC(C)(C)C)ncn2)C1 [Example 2, 6-[(3S)-3-(Dimethylamino)pyrrolidin-1-yl]-N-(3,3-dimethylbutyl)pyrimidin-4-amine] | 485
12 | CCNc1cc(N2CC(NC)C2)nc(N)n1 [Example 164, N^4-Ethyl-6-[3-(methylamino)azetidin-1-yl]pyrimidine-2,4-diamine] | 3.82
13 | CC(C)Nc1cc(N2CCC3NCCC3C2)nc(N)n1 (stereo not shown) [Example 231, N^4-Isopropyl-6-(octahydro-5H-pyrrolo[3,2-c]pyridin-5-yl)pyrimidine-2,4-diamine] | 131
14 | CN[C@@H]1CCN(c2cc(NCC(C)(C)C)ncn2)C1 [Example 183, N-(2,2-Dimethylpropyl)-6-[(3R)-3-(methylamino)pyrrolidin-1-yl]pyrimidin-4-amine] | 20
15 | C[C@H]1CN(c2cc(NCC3CC3)nc(N)n2)CCN1 [Example 184, N^4-(Cyclopropylmethyl)-6-[(3S)-3-methylpiperazin-1-yl]pyrimidine-2,4-diamine] | 20.4
16 | Nc1nc(NCC2CC2)cc(N2C[C@H]3CCCN[C@H]3C2)n1 [Example 165, N^4-(Cyclopropylmethyl)-6-[(4aR,7aR)-octahydro-6H-pyrrolo[3,4-b]pyridin-6-yl]pyrimidine-2,4-diamine] | 3.83
17 | CC(C)CNc1cc(N2C[C@H]3CNC[C@H]3C2)nc(N)n1 [Example 217, 6-[(3aR*,6aS*)-Hexahydropyrrolo[3,4-c]pyrrol-2(1H)-yl]-N^4-isobutylpyrimidine-2,4-diamine] | 80.6
18 | CN[C@@H]1CCN(c2cc(NCC3CC3)nc(N)n2)C1 [Example 167, N^4-(Cyclopropylmethyl)-6-[(3R)-3-(methylamino)pyrrolidin-1-yl]pyrimidine-2,4-diamine] | 6.3
19 | CN[C@@H]1CCN(c2cc(NC3CC3C)nc(N)n2)C1 (stereo partly drawn) [Example 134, 6-[(3R)-3-(Methylamino)pyrrolidin-1-yl]-N^4-(2-methylcyclopropyl)pyrimidine-2,4-diamine] | 4.15
20 | CNC1CN(c2cc(NCCOC)nc(N)n2)C1 [Example 182, N^4-(2-Methoxyethyl)-6-[3-(methylamino)azetidin-1-yl]pyrimidine-2,4-diamine] | 19.8
21 | CC(C)Nc1cc(N2CCN(C)CC2)ncn1 [Example 104, N-Isopropyl-6-(4-methylpiperazin-1-yl)pyrimidin-4-amine] | 118
22 | CN[C@@H]1CCN(c2cc(NCc3ccc(F)cc3)nc(N)n2)C1 [Example 155, N^4-(4-Fluorobenzyl)-6-[(3R)-3-(methylamino)pyrrolidin-1-yl]pyrimidine-2,4-diamine] | 1.78
23 | CC(C)CNc1cc(N2CCCN(C)CC2)nc(N)n1 [Example 135, N^4-Isobutyl-6-(4-methyl-1,4-diazepan-1-yl)pyrimidine-2,4-diamine] | 1.13
24 | Nc1nc(NCC2CC2)cc(N2CC(N)C2)n1 [Example 171, 6-(3-Aminoazetidin-1-yl)-N^4-(cyclopropylmethyl)pyrimidine-2,4-diamine] | 9.21
25 | CCCNc1cc(N2CC(NC)C2)nc(N)n1 [Example 73, 6-[3-(Methylamino)azetidin-1-yl]-N^4-propylpyrimidine-2,4-diamine] | 0.88
26 | CNC1CN(c2cc(NCc3cccc(F)c3F)nc(N)n2)C1 [Example 131, N^4-(2,3-Difluorobenzyl)-6-[3-(methylamino)azetidin-1-yl]pyrimidine-2,4-diamine] | 17.8
27 | CN[C@@H]1CCN(c2cc(NC3CCC3)nc(N)n2)C1 [Example 199, N^4-Cyclobutyl-6-[(3R)-3-(methylamino)pyrrolidin-1-yl]pyrimidine-2,4-diamine] | 33.9
28 | CC(C)(C)CCNc1cc(N[C@H]2CCNC2)nc(N)n1 [Example 101, N^4-(3,3-Dimethylbutyl)-N^6-[(3S)-pyrrolidin-3-yl]pyrimidine-2,4,6-triamine] | 463

Next, values leading:

Row | Ki [nM] | SMILES
29 | 102 | CC(C)(C)CCNc1cc(N2CC[C@@H](N)C2)nc(N)n1 [Example 225, 6-[(3R)-3-Aminopyrrolidin-1-yl]-N^4-(3,3-dimethylbutyl)pyrimidine-2,4-diamine]
30 | 258 | CNC1CN(c2cc(N3CCOC[C@@H]3C)nc(N)n2)C1 [Example 242, 4-[3-(Methylamino)azetidin-1-yl]-6-[(3S)-3-methylmorpholiN^4-yl]pyrimidin-2-amine]
31 | 298 | CN[C@@H]1CCN(c2cc(NCc3cc(F)ccc3F)nc(N)n2)C1 [Example 245, N^4-(2,5-Difluorobenzyl)-6-[(3R)-3-(methylamino)pyrrolidin-1-yl]pyrimidine-2,4-diamine]
32 | 380 | CN[C@@H]1CCN(c2cc(NCc3ccccc3)nc(N)n2)C1 [Example 254, N^4-Benzyl-6-[(3R)-3-(methylamino)pyrrolidin-1-yl]pyrimidine-2,4-diamine]
33 | 1660 | CN[C@@H]1CCN(c2cc(N3CCOCC3)nc(N)n2)C1 [Example 282, 4-[(3R)-3-(Methylamino)pyrrolidin-1-yl]-6-morpholin-4-ylpyrimidin-2-amine]
34 | 37.9 | CN[C@@H]1CCN(c2cc(NC3CC3)ncn2)C1 [Example 203, N-Cyclopropyl-6-[(3R)-3-(methylamino)pyrrolidin-1-yl]pyrimidin-4-amine]
35 | 52.9 | C[C@H]1CN(c2cc(NCc3ccccc3F)nc(N)n2)CCN1 [Example 213, N^4-(2-Fluorobenzyl)-6-[(3S)-3-methylpiperazin-1-yl]pyrimidine-2,4-diamine]
36 | 353 | CNC1CCCN(c2cc(NCC(C)(C)C)nc(N)n2)C1 (stereo not shown) [Example 250, N^4-(2,2-Dimethylpropyl)-6-[3-(methylamino)piperidin-1-yl]pyrimidine-2,4-diamine]
37 | 3180 | CNC1CN(c2cc(N3CCCCC3)nc(N)n2)C1 [Example 295, 4-[3-(Methylamino)azetidin-1-yl]-6-piperidin-1-ylpyrimidin-2-amine]
38 | 177 | CC(C)Nc1cc(N2CCC(N)CC2)nc(N)n1 [Example 234, 6-(4-Aminopiperidin-1-yl)-N^4-isopropylpyrimidine-2,4-diamine]
39 | 301 | CC1(N)CCN(c2cc(NCC3CC3)nc(N)n2)C1 (stereo not shown) [Example 246, 6-(3-Amino-3-methylpyrrolidin-1-yl)-N^4-(cyclopropylmethyl)pyrimidine-2,4-diamine]

Same assay, conditions: at 1 μM

Row | SMILES | Method 1, % at 1 μM [% at 1 μM]
40 | CC(C)Nc1cc(N2C[C@H]3CN(C)C[C@H]3C2)nc(N)n1 [Example 241, N^4-Isopropyl-6-[(3aR*,6aS*)-5-methylhexahydropyrrolo[3,4-c]pyrrol-2(1H)-yl]pyrimidine-2,4-diamine] | 45

Same assay, conditions: at 3.16 μM

Row | Method 1, % at 3.16 μM [% at 3.16 μM] | SMILES
41 | 14 | CNC1CN(c2cc(NCC3CC3)nc(NCC3CC3)n2)C1 [Example 276, N,N′-Bis(cyclopropylmethyl)-6-[3-(methylamino)azetidin-1-yl]pyrimidine-2,4-diamine]

Same assay, conditions: top dose 10 μM

Row | Method 1, activity at top dose (10 μM) | SMILES
42 | No activity at top | CNC1(C)CN(c2cc(NCCC(C)(C)C)nc(N)n2)C1 [Example 298, N^4-(3,3-Dimethylbutyl)-6-[3-methyl-3-(methylamino)azetidin-1-yl]pyrimidine-2,4-diamine]
43 | No activity at top | CC(C)(C)CCNc1cc(N2CCC(N3CCCC3)CC2)ncn1 [Example 301, N-(3,3-Dimethylbutyl)-6-(4-pyrrolidin-1-ylpiperidin-1-yl)pyrimidin-4-amine]
